Measurements as given in patent US20090263356A1, “ANTI-ANGIOGENIC COMPOSITION COMPRISING GRAIN-DERIVED COMPONENT AS ACTIVE INGREDIENT” (SANWA SHURUI CO., LTD., priority 2005, published 2009).

Experiments:
[1] = tested on: Human vascular endothelial cells and fibroblasts (co-culture); test: Experiment on vascularization inhibition (lumen formation, KURABO kit), Experiments 2 and 5; assay type: cell-based; conditions: Suramin 50 μM final, VEGF-A 5 ng/ml, 11-day culturing
Protocol: (§1) 1,000 μg of each specimen was weighed and dissolved in 1 ml of a culture medium. The resulting culture medium was sterilized by filtration (0.22 μm), diluted 10 fold (three times), to prepare samples at concentrations of 10 μg/ml to 1,000 μg/ml.
Human vascular endothelial cells and fibroblasts were co-cultured at their optimal concentrations. At the proliferation state at an early stage of luminal formation, the individual samples were added for 11-day culturing (the culture media containing the samples were exchanged 4, 7 and 9 days later). […] As standards for the evaluation, VEGF-A promoting luminal formation was added at […], while suramin inhibiting luminal formation was added at 50 μM, in the same manner. A control was prepared without any addition. Regarding the effect on inhibiting vascularization, the formed lumen-like network structure was evaluated.
Method: A kit manufactured by KURABO was used for measurement. […] VEGF as a vascularization promoting factor and suramin as an agent for suppressing vascularization were concurrently present in a control, so as to compare the lumen formation state in the co-existence of VEGF and each sample.
Concentration of a sample added: 10, 100 and 1,000 μg/ml (Suramin was added in all of the cases at the same concentration; 50 μM)
VEGF-A as a vascularization-promoting factor was added at an amount of 5 ng/ml (as the final concentration) Suramin as a positive control with an observed effect on inhibiting vascularization was added at an amount of 50 μM (as the final concentration)
1,000 μg of each specimen was weighed and dissolved in 1 ml of a culture medium. The resulting culture medium was sterilized by filtration (0.22 μm) and diluted 10 fold (three times), to prepare samples at concentrations of 10 μg/ml to 1,000 μg/ml.
Concentration of a sample added: 10, 100 and 1000 μg/ml (Suramin was added in all of the cases at the same concentration; 50 μM)

[2] = tested on: Human vascular endothelial cells and fibroblasts (co-culture); test: Experiment on vascularization inhibition (luminal formation), Experiments 1 and 4; assay type: cell-based; conditions: suramin 25 μM final, VEGF-A 5 ng/ml, 11-day culturing; for AREA (area of vascular tube region): smaller = larger inhibition
Protocol: as §1, with “μg/ml as shown in Table 1 (the contents of the test samples for use in assessing the effect on inhibiting vascularization).” for “μg/ml.”
(§2) Human vascular endothelial cells and fibroblasts were co-cultured at their optimal concentrations. At the proliferation state at an early stage of luminal formation, the individual samples (1-1-1, the negative controls, the positive controls) were added for 11-day culturing (the culture media containing the samples were exchanged 4, 7 and 9 days later). […] So as to evaluate the effect on inhibiting vascularization, the formed lumen-like network structure was observed.
Photographs of the vascular tube tissues were incorporated as digital data, to measure the area of a vascular tube region (black region) at several points randomly selected to determine the effect on inhibiting vascularization.
VEGF-A as a vascularization-promoting factor was added at an amount of 5 ng/ml (as the final concentration) Suramin as a positive control with an observed effect on inhibiting vascularization was added at an amount of 25 μM (as the final concentration)
as §1, with “μg/ml as shown in Table 4 (the contents of test samples for assessing vascularization inhibitory effect).” for “μg/ml.”
as §2, with “Regarding” for “So as to evaluate”, “evaluated.” for “observed.”
Photographs of blood tube tissues were incorporated as digital data, to measure the area of the blood tube region (black part) at several positions randomly selected, to determine the inhibitory effect of vascularization.

Cc1ccc(C(=O)Nc2ccc(S(=O)(=O)O)c3cc(S(=O)(=O)O)cc(S(=O)(=O)O)c23)cc1NC(=O)c1cccc(NC(=O)Nc2cccc(C(=O)Nc3cc(C(=O)Nc4ccc(S(=O)(=O)O)c5cc(S(=O)(=O)O)cc(S(=O)(=O)O)c45)ccc3C)c2)c1 [Suramin, suramin]
AREA [1]: 30401
JOINT [1]: 413
LENGTH [1]: 6396
JOINT ([2]; listed as A3): 11
LENGTH ([2]; listed as A3): 4583
PATH ([2]; listed as A3): 107
JOINT ([2]; listed as A4): 16
LENGTH ([2]; listed as A4): 5311
PATH ([2]; listed as A4): 128
AREA (area of vascular tube region) ([2]; listed as A3): 27940
AREA (area of vascular tube region) ([2]; listed as A4): 33301
